Source: US12540154B2, “Glucosamine derivative nanoparticle and preparating method and use thereof” (CPC Corporation, TAIWAN, priority 2023, dated 2026)

Tested on: HaCaT cells
Experiment: Cell cytotoxicity test (CCK-8)
Assay type: cell-based, human
Details: 125-1,000 ppm, 24 hours, CCK-8, FIG. 6
Procedure: HaCaT cells are seeded into a 96 well plate at 10^5 cells/well. After attachment overnight, remove culture medium. The frozen peptide (KTTKS(SEQ ID NO: 1), CRGDS(SEQ ID NO: 2), and RRRRRR(SEQ ID NO: 3)) and the glucosamine derivative nanoparticles are respectively dissolved in serum-free medium (SFM) again (final concentration 1,000 ppm). Use SFM to carry out serial dilution and get concentrations of 500 ppm, 250 ppm, and 125 ppm. Then add 100 μl samples with different concentrations into the well plate (repeat four times and a group of samples added with SFM used as control group). After being cultured for 24 hours, remove culture medium and add 10 μl CCK-8 and 100 μl PBS into each of the wells. Then react at 37° C. for 2-3 hours and read absorbance at 450 nm. Cell viability is defined as a percentage of the absorbance of the respective test groups relative to the absorbance of the control group while the cell viability of the control group is set as 100%.

## N[C@H]1C(O)O[C@H](CO)[C@@H](O)[C@@H]1O (stereo partly shown) [glucosamine]
  cell viability trend with concentration: reduced a bit along with the increasing glucosamine concentration
